The source of these data is patent US20240299385A1 (ReWind Therapeutics NV, priority 2021, published 2024).

Molecules are shown by their SMILES. pIC50: −log10 of the molar value.

The target in this experiment is T1, human GPR17 receptor (Homo sapiens, UniProt Q13304).
T1 construct: host or cells: HEK-293
T1 sequence (Q13304 whole entry): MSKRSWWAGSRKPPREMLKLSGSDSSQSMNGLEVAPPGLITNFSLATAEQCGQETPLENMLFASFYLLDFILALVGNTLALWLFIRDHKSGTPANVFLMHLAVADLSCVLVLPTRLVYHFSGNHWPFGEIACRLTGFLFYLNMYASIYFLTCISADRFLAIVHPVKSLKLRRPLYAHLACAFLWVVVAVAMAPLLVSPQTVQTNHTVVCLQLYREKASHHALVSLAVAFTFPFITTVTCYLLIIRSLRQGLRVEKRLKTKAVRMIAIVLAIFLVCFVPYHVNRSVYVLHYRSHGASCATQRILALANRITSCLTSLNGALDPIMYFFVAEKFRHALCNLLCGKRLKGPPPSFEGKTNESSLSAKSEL
Put plainly: Calcium mobilization functional assay (Fluo-8, FLIPR TETRA) in HEK-293 hGPR17 (Gα-q assay). The class given is cell-based. The conditions noted are these: antagonism of MDL29,951 (~EC80) induced Ca2+ signal; cell line (HEK-293 hGPR17 or HEK-293 Suchi5 hGPR17) not given. The procedure, abridged: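 Fluo-8-loaded HEK-293 hGPR17 cells (60 min dye loading, room temperature) were preincubated with compound for twenty minutes, then challenged with agonist MDL29,951 at ~EC80, 500 nM. Intracellular calcium release via Gα-q was recorded as FLIPR fluorescence for a further 2 minutes; compounds tested in duplicate.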
Consider `COc1ccc(-c2cc(S(=O)(=O)Nc3ccc(C#N)cc3F)c[nH]2)c(Cl)c1` [Cpd 300, 5-(2-chloro-4-methoxy-phenyl)-N-(4-cyano-2-fluoro-phenyl)-1H-pyrrole-3-sulfonamide], for which the negative logarithm of the IC50 (pIC50) is 5.30 to 6.30.
`O=S(=O)(Nc1cc(F)c(C(F)(F)F)cc1F)c1c[nH]c(-c2cccc(F)c2F)c1` [Cpd 301, 5-(2,3-difluorophenyl)-N-[2,5-difluoro-4-(trifluoromethyl)phenyl]-1H-pyrrole-3-sulfonamide]: the pIC50 was 5.30 to 6.30.
Take `O=S(=O)(Nc1cc(F)c(C(F)(F)F)cc1F)c1c[nH]c(-c2cscn2)c1` [Cpd 302, N-[2,5-difluoro-4-(trifluoromethyl)phenyl]-5-thiazol-4-yl-1H-pyrrole-3-sulfonamide]: the pIC50 was greater than 6.30.
For `Cc1ccnc(-c2cc(S(=O)(=O)Nc3cc(F)c(C(F)(F)F)cc3F)c[nH]2)c1` [Cpd 303, N-[2,5-difluoro-4-(trifluoromethyl)phenyl]-5-(4-methyl-2-pyridyl)-1H-pyrrole-3-sulfonamide], the pIC50 is 5.30 to 6.30.
For `COc1ccc(-c2cc(S(=O)(=O)Nc3cc(F)c(C(F)(F)F)cc3F)c[nH]2)nc1` [Cpd 304, N-[2,5-difluoro-4-(trifluoromethyl)phenyl]-5-(5-methoxy-2-pyridyl)-1H-pyrrole-3-sulfonamide] the value was 5.30 to 6.30; for `COc1ccnc(-c2cc(S(=O)(=O)Nc3cc(F)c(C(F)(F)F)cc3F)c[nH]2)c1` [Cpd 305, N-[2,5-difluoro-4-(trifluoromethyl)phenyl]-5-(4-methoxy-2-pyridyl)-1H-pyrrole-3-sulfonamide], 5.30 to 6.30.
Turning to `Cc1cccc(Cc2c[nH]cc2S(=O)(=O)Nc2ccc(C#N)cc2F)c1` [Cpd 306, N-(4-cyano-2-fluoro-phenyl)-4-(m-tolylmethyl)-1H-pyrrole-3-sulfonamide], the negative-log IC50 (pIC50) was 5.30 to 6.30.
The result for `N#Cc1ccc(NS(=O)(=O)c2c[nH]cc2Cc2cccc(C(F)(F)F)c2)c(F)c1` [Cpd 307, N-(4-cyano-2-fluoro-phenyl)-4-[[3-(trifluoromethyl)phenyl]methyl]-1H-pyrrole-3-sulfonamide] reads 5.30 to 6.30.
For `N#Cc1ccc(NS(=O)(=O)c2c[nH]cc2Cc2cccc(OC(F)(F)F)c2)c(F)c1` [Cpd 308, N-(4-cyano-2-fluoro-phenyl)-4-[[3-(trifluoromethoxy)phenyl]methyl]-1H-pyrrole-3-sulfonamide] the value was 5.30 to 6.30.
Turning to `N#Cc1ccc(NS(=O)(=O)c2c[nH]cc2Cc2cccc(OC(F)F)c2)c(F)c1` [Cpd 309, N-(4-cyano-2-fluoro-phenyl)-4-[[3-(difluoromethoxy)phenyl]methyl]-1H-pyrrole-3-sulfonamide], the pIC50 is greater than 6.30.
Take `N#Cc1ccc(NS(=O)(=O)c2c[nH]c(-c3ncccc3C(F)(F)F)c2)c(F)c1` [Cpd 310, N-(4-cyano-2-fluoro-phenyl)-5-[3-(trifluoromethyl)-2-pyridyl]-1H-pyrrole-3-sulfonamide]: the pIC50 was 5.30 to 6.30.
`O=S(=O)(Nc1cc(F)c(OC2CC2)cc1F)c1c[nH]c(-c2ccccn2)c1` [Cpd 311, N-[4-(cyclopropoxy)-2,5-difluoro-phenyl]-5-(2-pyridyl)-1H-pyrrole-3-sulfonamide]: the negative logarithm of the IC50 (pIC50) was 5.30 to 6.30.
For `N#Cc1ccc(NS(=O)(=O)c2c[nH]c(-c3ccccc3)c2)c(F)c1Cl` [Cpd 312, N-(3-chloro-4-cyano-2-fluoro-phenyl)-5-phenyl-1H-pyrrole-3-sulfonamide] the value was 5.30 to 6.30; for `O=S(=O)(Nc1ccc(C(F)(F)F)cc1F)c1c[nH]c(-c2ccccc2)c1` [Cpd 313, N-[2-fluoro-4-(trifluoromethyl)phenyl]-5-phenyl-1H-pyrrole-3-sulfonamide], 5.30 to 6.30.
The result for `COc1ccc(F)cc1-c1cc(S(=O)(=O)Nc2ccc(C#N)cc2F)c[nH]1` [Cpd 314, N-(4-cyano-2-fluoro-phenyl)-5-(5-fluoro-2-methoxy-phenyl)-1H-pyrrole-3-sulfonamide] reads 5.30 to 6.30; that for `Cc1ccc(F)c(-c2cc(S(=O)(=O)Nc3cc(F)c(C(F)(F)F)cc3F)c[nH]2)c1` [Cpd 315, N-[2,5-difluoro-4-(trifluoromethyl)phenyl]-5-(2-fluoro-5-methyl-phenyl)-1H-pyrrole-3-sulfonamide], 5.30 to 6.30.
In the case of `N#Cc1ccc(NS(=O)(=O)c2c[nH]c(-c3cc(F)cc(Cl)c3)c2)c(F)c1` [Cpd 316, 5-(3-chloro-5-fluoro-phenyl)-N-(4-cyano-2-fluoro-phenyl)-1H-pyrrole-3-sulfonamide], the pIC50 was 5.30 to 6.30.
Regarding `N#Cc1ccc(NS(=O)(=O)c2c[nH]c(-c3ccccc3)c2)c(F)c1F` [Cpd 317, N-(4-cyano-2,3-difluoro-phenyl)-5-phenyl-1H-pyrrole-3-sulfonamide], the pIC50 is 5.30 to 6.30.
For the compound `N#Cc1cccc(-c2cc(S(=O)(=O)Nc3cc(F)c(C(F)(F)F)cc3F)c[nH]2)c1` [Cpd 318, 5-(3-cyanophenyl)-N-[2,5-difluoro-4-(trifluoromethyl)phenyl]-1H-pyrrole-3-sulfonamide], the pIC50 is greater than 6.30.
For `Cc1cccc(-c2cc(S(=O)(=O)Nc3cc(F)c(C(F)(F)F)cc3F)c[nH]2)c1F` [Cpd 319, N-[2,5-difluoro-4-(trifluoromethyl)phenyl]-5-(2-fluoro-3-methyl-phenyl)-1H-pyrrole-3-sulfonamide] the value was 5.30 to 6.30; for `O=S(=O)(Nc1cc(F)c(C(F)(F)F)cc1F)c1c[nH]c(-c2cc(Cl)ccc2F)c1` [Cpd 320, 5-(5-chloro-2-fluoro-phenyl)-N-[2,5-difluoro-4-(trifluoromethyl)phenyl]-1H-pyrrole-3-sulfonamide], 5.30 to 6.30; for `Cc1cccc(F)c1-c1cc(S(=O)(=O)Nc2cc(F)c(C(F)(F)F)cc2F)c[nH]1` [Cpd 321, N-[2,5-difluoro-4-(trifluoromethyl)phenyl]-5-(2-fluoro-6-methyl-phenyl)-1H-pyrrole-3-sulfonamide], 5.30 to 6.30.
For `N#Cc1ccc(NS(=O)(=O)c2c[nH]c(-c3ccccn3)c2)c(F)c1F` [Cpd 322, N-(4-cyano-2,3-difluoro-phenyl)-5-(2-pyridyl)-1H-pyrrole-3-sulfonamide] the value was 5.30 to 6.30; for `COc1cccc(-c2cc(S(=O)(=O)Nc3cc(F)c(C(F)(F)F)cc3F)c[nH]2)c1` [Cpd 323, N-[2,5-difluoro-4-(trifluoromethyl)phenyl]-5-(3-methoxyphenyl)-1H-pyrrole-3-sulfonamide], 5.30 to 6.30; for `COc1ccc(-c2cc(S(=O)(=O)Nc3cc(F)c(C(F)(F)F)cc3F)c[nH]2)c(F)c1` [Cpd 324, N-[2,5-difluoro-4-(trifluoromethyl)phenyl]-5-(2-fluoro-4-methoxy-phenyl)-1H-pyrrole-3-sulfonamide], 4.30 to 5.30.
The result for `COc1cccc(-c2cc(S(=O)(=O)Nc3cc(F)c(C(F)(F)F)cc3F)c[nH]2)c1F` [Cpd 325, N-[2,5-difluoro-4-(trifluoromethyl)phenyl]-5-(2-fluoro-3-methoxy-phenyl)-1H-pyrrole-3-sulfonamide] reads 5.30 to 6.30; that for `Cc1cc(NS(=O)(=O)c2c[nH]c(-c3ccccc3)c2)c(F)cc1C#N` [Cpd 326, N-(4-cyano-2-fluoro-5-methyl-phenyl)-5-phenyl-1H-pyrrole-3-sulfonamide], greater than 6.30.
Regarding `O=S(=O)(Nc1cc(F)c(C(F)(F)F)cc1F)c1c[nH]c(-c2cccc(Cl)c2F)c1` [Cpd 327, 5-(3-chloro-2-fluoro-phenyl)-N-[2,5-difluoro-4-(trifluoromethyl)phenyl]-1H-pyrrole-3-sulfonamide], the pIC50 was 5.30 to 6.30.
